The test has as its target T1, signal transducer and activator of transcription 3 (STAT3) (Homo sapiens, UniProt P40763).
T1 construct: Wild-type STAT3 proteins
Kind of test: SPR (BIAcore T200, STAT3 immobilized on CM5 chip); supported by pull-down, proteome microarray and CETSA. Type of test: binding.

From paper PMC12224983, “Isoquercitrin Alleviates Diabetic Nephropathy by Inhibiting STAT3 Phosphorylation and Dimerization” (Advanced Science, 2025) come the findings set out here.

T1 sequence (P40763 2-770): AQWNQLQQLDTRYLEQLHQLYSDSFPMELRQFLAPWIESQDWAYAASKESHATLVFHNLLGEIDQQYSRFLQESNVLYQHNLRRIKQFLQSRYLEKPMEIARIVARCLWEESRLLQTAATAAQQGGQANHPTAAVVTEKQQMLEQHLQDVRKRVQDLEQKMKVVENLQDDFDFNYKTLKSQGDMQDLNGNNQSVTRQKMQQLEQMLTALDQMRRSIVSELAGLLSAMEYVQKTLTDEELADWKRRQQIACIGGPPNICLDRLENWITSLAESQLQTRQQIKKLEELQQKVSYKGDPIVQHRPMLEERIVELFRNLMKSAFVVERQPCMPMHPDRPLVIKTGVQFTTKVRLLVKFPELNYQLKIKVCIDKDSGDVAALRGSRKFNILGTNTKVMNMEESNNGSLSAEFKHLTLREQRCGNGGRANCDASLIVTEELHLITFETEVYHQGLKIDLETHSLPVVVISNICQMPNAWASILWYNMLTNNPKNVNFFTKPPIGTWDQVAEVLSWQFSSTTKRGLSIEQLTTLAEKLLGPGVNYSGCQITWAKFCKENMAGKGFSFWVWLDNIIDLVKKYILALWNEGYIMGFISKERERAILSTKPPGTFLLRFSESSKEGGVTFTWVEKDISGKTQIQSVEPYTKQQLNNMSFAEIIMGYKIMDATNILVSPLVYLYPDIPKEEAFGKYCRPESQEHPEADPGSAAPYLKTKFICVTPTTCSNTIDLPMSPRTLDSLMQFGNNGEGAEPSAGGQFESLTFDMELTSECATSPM

Usually Kd stands for a measure of binding affinity in units of concentration. A low value points to higher affinity. `O=c1c(O[C@@H]2O[C@H](CO)[C@@H](O)[C@H](O)[C@H]2O)c(-c2ccc(O)c(O)c2)oc2cc(O)cc(O)c12` [Isoquercitrin] showed a Kd of 2860 nM.
